Tests used:
OhyA wild type (WT) = target: T1, OhyA wild type (WT) (Elizabethkingia meningoseptica, UniProt C7DLJ6); assay: Whole cell E. coli biotransformation, hydration of oleic acid and derivatives by OhyA wild type; assay type: cell-based; conditions: whole cell E. coli biocatalyst, 2 mM substrate, 30° C., pH 6.0
T1 construct: His tag with TEV site by the vector name (HISTEV); expressed in transfected cells; host or cells: E. coli BL21 Star (DE3)
Experimental: (§1) Free fatty acids were identified and analyzed by gas chromatography-mass spectrometry (GC-MS) and comparison of derived mass fragmentation spectra to authentic standards. A HP-5 column (crosslinked 5% Ph-Me Siloxane; 30 m length, 0.25 mm in diameter and 0.25 μm film thickness) on a Hewlett-Packard 6890 Series II GC equipped with a mass selective detector was used. Sample aliquots of 1 μL were injected in split mode (split ratio 30:1) at 240° C. injector temperature and 290° C. detector temperature with N2 as carrier at a flow rate set to 36 cm s^−1 in constant flow mode. The temperature program was as follows: 100° C. for 1 min, 15° C. min^−1 to 300° C., hold for 5 min. The total run time was 19.33 min. The mass selective detector was operated in a mass range of 50-400 amu at an electron multiplier voltage of 1765 V. Results were evaluated with the GC-MS Data Analysis software (Agilent Technologies, Austria).
(§2) OhyA was recombinantly expressed in E. coli. First, a pre-culture was inoculated with E. coli BL21 Star (DE3) cells harboring pMS470-HISTEV-OhyA wild type enzyme or variants, and was grown in LB supplemented with 100 μg mL^−1 ampicillin at 28° C. and 130 rpm overnight. Main cultures were inoculated to an OD600 of 0.1 in auto induction medium (AIM)—Terrific Broth Base including Trace elements (Formedium, UK) containing 100 μg mL^−1 ampicillin. Recombinant protein was expressed at 28° C. and 130 rpm for 22 h. Cells were harvested by centrifugation for 10 min at 4,400×g and 22° C. and were instantly used for whole cell biotransformation or were frozen at −20° C. until protein purification.
(§3) For bioconversion assays of oleic acid (OA) and OA derivatives, i.e. substrates (1) to (10), 50 OD600 units of thus prepared cells, which are corresponding to a cell dry weight of 50 mg, were resuspended in 50 mM HEPES, pH 6.0, supplemented with 100 mM glucose and 0.2 mM FAD in Pyrex® glass culture tubes (Corning, N.Y.). Biotransformation at 1 mL scale were started by adding substrate to a final concentration of 2 mM from an ethanolic stock solution (100 mM). n-pentadecanoic acid (1 mM) was used as internal standard. The reactions were conducted in the presence of 2% (v/v) of ethanol as co-solvent at 30° C. and shaking at 150 rpm at a defined angle of the Pyrex® tubes (55°). Biotransformation were performed for 22 h or 96 h. The assays were quenched by acidification to pH 2.0 with 0.12 M HCl, and fatty acid derivatives were extracted twice with 2 mL of ethyl acetate while agitating on a Vibrax VXR basic shaker (IKA, Germany) for 30 min. The suspension was centrifuged for 5 min at 2,900×g and 22° C. to improve the separation of the phases. Combined organic phases were concentrated under a N2 stream. Fatty acid derivatives were silylated with 10 μL of pyridine and 50 μL of N,O-bis(trimethylsilyl)trifluoroacetamide (BSTFA). After incubation for 30 min at 500 rpm, extracts were diluted with 200 μL of ethyl acetate and analyzed by GC-MS. […]

OhyA Q265A/T436A/N438A = target: T2, OhyA Q265A/T436A/N438A (Elizabethkingia meningoseptica, UniProt C7DLJ6, N438A/Q265A/T436A); assay: Whole cell E. coli biotransformation, hydration of oleic acid and derivatives by mutant OhyA Q265A/T436A/N438A; assay type: cell-based; conditions: for e.e. of hydrated product: abs. conf. at C-10: R, table does not separate WT and mutant; for Apparent hydration activity normalized for biomass, OhyA Q265A/T436A/N438A: whole cell E. coli biocatalyst, 2 mM substrate, 30° C., pH 6.0; for relative hydration activity compared to wt-OhyA: OhyA Q265A/T436A/N438A versus wt-OhyA
T2 construct: His tag with TEV site by the vector name (HISTEV); expressed in transfected cells; host or cells: E. coli BL21 Star (DE3)
Experimental: as §1, §2, §3

OhyA Q265A/N438A = target: T3, OhyA Q265A/N438A (Elizabethkingia meningoseptica, UniProt C7DLJ6, N438A/Q265A); assay: Bioconversion with modified OhyA variant Q265A/N438A; assay type: cell-based; conditions: OhyA Q265A/N438A in bioconversions
T3 construct: His tag with TEV site by the vector name (HISTEV); expressed in transfected cells; host or cells: E. coli BL21 Star (DE3)
Experimental: as §2
For bioconversion assays of oleic acid (OA) and OA derivatives, i.e. substrates (1) to (10), 50 OD600 units of thus prepared cells, which are corresponding to a cell dry weight of 50 mg, were resuspended in 50 mM HEPES, pH 6.0, supplemented with 100 mM glucose and 0.2 mM FAD in Pyrex® glass culture tubes (Corning, N.Y.). Biotransformation at 1 mL scale were started by adding substrate to a final concentration of 2 mM from an ethanolic stock solution (100 mM). n-pentadecanoic acid (1 mM) was used as internal standard. […] After incubation for 30 min at 500 rpm, extracts were diluted with 200 μL of ethyl acetate and analyzed by GC-MS.

[1] = target: oleate hydratase from Elizabethkingia meningoseptica (OhyA, EC 4.2.1.53) (Elizabethkingia meningoseptica, UniProt C7DLJ6); conditions: wild-type OhyA, without co-factor recycling; cited from earlier work
[2] = target: T4, mutant OhyA Q265A/T436A/N438A (Elizabethkingia meningoseptica, UniProt C7DLJ6, N438A/Q265A/T436A); assay: Anaerobic in vitro hydration with purified OhyA after reduction of the FAD cofactor; assay type: biochemical; conditions: purified enzyme, reduced FAD, overnight incubation, wt-OhyA compared with mutant
T4 construct: His tag with TEV site by the vector name (HISTEV); made in house; host or cells: E. coli BL21 Star (DE3)
Experimental: For purification of the recombinant OhyA, cell pellets were resuspended in 50 mM HEPES, pH 7.4, containing 10 mM imidazole. Cells were lysed by ultrasonication for 4 min with a Sonifier® 250 (Branson, Danbury, Conn.) setting the duty cycle to 80% and the output control to level 8. Cell free extract (CFE) was separated from the total cell lysate (TCL) by centrifugation for 35 min at 48,300×g and 4° C., and was filtered through 0.22 μm filters (Millipore, Bedford, Mass.) prior to loading it onto a pre-equilibrated self-packed Ni-NTA affinity chromatography column (GE Healthcare, United Kingdom). Prior to any further analyses, purified OhyA was incubated with a 10-fold molar excess of FAD over night at 4° C. Unbound FAD was removed from the protein aliquot by buffer exchange via PD-10 desalting columns (GE Healthcare, United Kingdom) according to the recommended protocol.
For reduction of the enzyme-bound flavin cofactor, wt-OhyA and mutant Q265A/T436A/N438A were diluted in 50 mM HEPES, pH 7.4, containing 50 mM NaCl, 5 mM EDTA, 1 μM 5-deazariboflavin and 4 μM methyl viologen to give an absorption of approximately 0.2 AU at 440 nm. The solution was transferred to a cuvette and oxygen was removed by incubation for at least 2 h in a glove box. Afterwards, the cofactor was reduced by anaerobic photoreduction or chemical reduction with dithiothreitol (DTT). […]

T1 sequence (C7DLJ6 whole entry): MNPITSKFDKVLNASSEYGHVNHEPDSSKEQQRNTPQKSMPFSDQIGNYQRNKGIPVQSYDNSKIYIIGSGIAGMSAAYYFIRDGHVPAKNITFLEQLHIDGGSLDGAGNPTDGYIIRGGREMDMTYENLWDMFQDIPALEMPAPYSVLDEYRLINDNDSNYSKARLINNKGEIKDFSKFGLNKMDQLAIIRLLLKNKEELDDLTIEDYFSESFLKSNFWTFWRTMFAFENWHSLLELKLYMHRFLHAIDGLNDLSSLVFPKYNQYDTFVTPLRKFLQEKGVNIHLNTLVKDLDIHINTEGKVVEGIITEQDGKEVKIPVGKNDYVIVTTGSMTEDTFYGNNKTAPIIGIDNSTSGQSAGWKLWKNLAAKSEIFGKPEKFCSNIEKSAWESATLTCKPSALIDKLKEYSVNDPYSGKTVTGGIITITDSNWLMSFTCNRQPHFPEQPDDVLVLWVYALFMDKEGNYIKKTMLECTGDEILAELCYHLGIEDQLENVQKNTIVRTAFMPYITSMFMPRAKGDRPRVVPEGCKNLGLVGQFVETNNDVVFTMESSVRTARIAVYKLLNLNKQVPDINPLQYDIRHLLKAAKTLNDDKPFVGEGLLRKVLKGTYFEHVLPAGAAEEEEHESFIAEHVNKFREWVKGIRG
T2 sequence (C7DLJ6 whole entry Q265A/T436A/N438A): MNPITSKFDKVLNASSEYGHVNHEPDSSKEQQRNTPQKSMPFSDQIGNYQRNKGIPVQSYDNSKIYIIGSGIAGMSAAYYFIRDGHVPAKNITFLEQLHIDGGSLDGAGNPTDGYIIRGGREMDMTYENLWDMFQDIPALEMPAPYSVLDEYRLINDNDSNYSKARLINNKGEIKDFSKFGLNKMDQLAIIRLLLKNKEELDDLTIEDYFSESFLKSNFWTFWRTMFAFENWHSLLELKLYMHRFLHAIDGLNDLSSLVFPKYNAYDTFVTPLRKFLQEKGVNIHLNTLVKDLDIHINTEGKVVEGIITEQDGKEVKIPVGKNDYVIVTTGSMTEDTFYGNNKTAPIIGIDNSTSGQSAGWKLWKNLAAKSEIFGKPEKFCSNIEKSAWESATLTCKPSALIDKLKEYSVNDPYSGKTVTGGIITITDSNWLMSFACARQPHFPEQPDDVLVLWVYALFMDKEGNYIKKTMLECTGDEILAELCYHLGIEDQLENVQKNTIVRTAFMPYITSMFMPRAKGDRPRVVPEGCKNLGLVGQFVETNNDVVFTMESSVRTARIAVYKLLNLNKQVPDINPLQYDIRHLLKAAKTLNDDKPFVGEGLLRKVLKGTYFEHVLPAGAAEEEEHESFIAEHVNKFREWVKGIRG
T3 sequence (C7DLJ6 whole entry Q265A/N438A): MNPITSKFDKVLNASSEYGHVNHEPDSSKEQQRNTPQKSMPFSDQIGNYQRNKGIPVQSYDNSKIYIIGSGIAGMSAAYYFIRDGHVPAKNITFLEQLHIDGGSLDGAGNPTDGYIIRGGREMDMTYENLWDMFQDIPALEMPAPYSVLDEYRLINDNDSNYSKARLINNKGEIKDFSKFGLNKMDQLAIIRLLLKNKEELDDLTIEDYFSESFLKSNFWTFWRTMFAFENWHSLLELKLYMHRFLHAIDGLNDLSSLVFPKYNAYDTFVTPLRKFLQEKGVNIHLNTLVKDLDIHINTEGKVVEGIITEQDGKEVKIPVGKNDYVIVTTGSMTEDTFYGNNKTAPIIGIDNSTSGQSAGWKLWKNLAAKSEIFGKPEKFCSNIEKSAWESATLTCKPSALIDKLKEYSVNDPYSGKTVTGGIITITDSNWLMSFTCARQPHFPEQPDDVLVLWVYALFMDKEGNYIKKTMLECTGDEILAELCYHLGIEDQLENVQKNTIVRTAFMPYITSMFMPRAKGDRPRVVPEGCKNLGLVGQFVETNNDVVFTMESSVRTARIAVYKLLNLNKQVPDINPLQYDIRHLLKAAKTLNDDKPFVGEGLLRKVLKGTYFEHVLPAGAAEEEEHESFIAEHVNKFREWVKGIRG
Sequence of oleate hydratase from Elizabethkingia meningoseptica (OhyA, EC 4.2.1.53) (C7DLJ6 whole entry): as the sequence (C7DLJ6 whole entry) above
T4 sequence (C7DLJ6 whole entry Q265A/T436A/N438A): as the sequence (C7DLJ6 whole entry Q265A/T436A/N438A) above

SMILES: CCCCCCCC/C=C\CCCCCCCC(N)=O [Entry 3, oleamide]
- Apparent hydration activity normalized for biomass, OhyA WT (OhyA wild type (WT)): 11.1 ± 0.7 mU g^−1 CDW
- e.e. of hydrated product (OhyA Q265A/T436A/N438A): >99%
- Apparent hydration activity normalized for biomass, OhyA Q265A/T436A/N438A (OhyA Q265A/T436A/N438A): 10.7 ± 0.3 mU g^−1 CDW

SMILES: CCCCCCCC/C=C\CCCCCCCCN [Entry 2, oleyl amine]
- e.e. of hydrated product (OhyA Q265A/T436A/N438A): >99%

SMILES: CCCCCCCC/C=C\CCCCCCCC(=O)NO [Entry 4, N-hydroxy oleamide]
- Apparent hydration activity normalized for biomass, OhyA WT (OhyA wild type (WT)): 3.4 ± 0.7 mU g^−1 CDW
- relative hydration activity compared to wt-OhyA (OhyA Q265A/T436A/N438A): at least 5 fold
- e.e. of hydrated product (OhyA Q265A/T436A/N438A): >99%
- Apparent hydration activity normalized for biomass, OhyA Q265A/T436A/N438A (OhyA Q265A/T436A/N438A): 13.4 ± 2.5 mU g^−1 CDW
- enhanced relative hydration activity (OhyA Q265A/N438A): at least 5 fold

SMILES: CCCCCCCC/C=C\CCCCCCCC(=O)OCCCC [Entry 10, n-butyl oleate]
- Apparent hydration activity normalized for biomass, OhyA WT (OhyA wild type (WT)): 0.1 ± 0.1 mU g^−1 CDW
- e.e. of hydrated product (OhyA Q265A/T436A/N438A): >99%
- Apparent hydration activity normalized for biomass, OhyA Q265A/T436A/N438A (OhyA Q265A/T436A/N438A): 0.8 ± 0.1 mU g^−1 CDW

SMILES: CCCCCCCC/C=C\CCCCCCCC(=O)OCC [Entry 7, ethyl oleate]
- Apparent hydration activity normalized for biomass, OhyA WT (OhyA wild type (WT)): 0.2 ± 0.1 mU g^−1 CDW
- relative hydration activity compared to wt-OhyA (OhyA Q265A/T436A/N438A): 6 fold
- e.e. of hydrated product (OhyA Q265A/T436A/N438A): >99%
- Apparent hydration activity normalized for biomass, OhyA Q265A/T436A/N438A (OhyA Q265A/T436A/N438A): 1.7 ± 0.1 mU g^−1 CDW

SMILES: CCCCCCCC/C=C\CCCCCCCC(=O)OCCC [Entry 9, n-propyl oleate]
- Apparent hydration activity normalized for biomass, OhyA WT (OhyA wild type (WT)): 0.2 ± 0.1 mU g^−1 CDW
- relative hydration activity compared to wt-OhyA (OhyA Q265A/T436A/N438A): 20 fold
- e.e. of hydrated product (OhyA Q265A/T436A/N438A): >99%
- Apparent hydration activity normalized for biomass, OhyA Q265A/T436A/N438A (OhyA Q265A/T436A/N438A): 0.9 ± 0.1 mU g^−1 CDW

SMILES: CCCCCCCC/C=C\CCCCCCCC(=O)O [Entry 1, oleic acid]
- Apparent hydration activity normalized for biomass, OhyA WT (OhyA wild type (WT)): 26.3 ± 0.2 mU g^−1 CDW
- e.e. of hydrated product (OhyA Q265A/T436A/N438A): >99%
- Apparent hydration activity normalized for biomass, OhyA Q265A/T436A/N438A (OhyA Q265A/T436A/N438A): 28.4 ± 0.3 mU g^−1 CDW
- enantiomeric excess (ee) of (R)-10-hydroxy stearic acid [1]: at least 98%

SMILES: CCCCCCCC/C=C\CCCCCCCCO [Entry 5, oleyl alcohol]
- Apparent hydration activity normalized for biomass, OhyA WT (OhyA wild type (WT)): 8.4 ± 2.1 mU g^−1 CDW
- relative hydration activity compared to wt-OhyA (OhyA Q265A/T436A/N438A): at least 2 fold
- e.e. of hydrated product (OhyA Q265A/T436A/N438A): >99%
- Apparent hydration activity normalized for biomass, OhyA Q265A/T436A/N438A (OhyA Q265A/T436A/N438A): 15.5 ± 1.0 mU g^−1 CDW

SMILES: CCCCCCCC/C=C\CCCCCCCC(=O)OC(C)C [Entry 8, i-propyl oleate]
- Apparent hydration activity normalized for biomass, OhyA WT (OhyA wild type (WT)): 0.1 ± 0.1 mU g^−1 CDW
- e.e. of hydrated product (OhyA Q265A/T436A/N438A): >99%
- Apparent hydration activity normalized for biomass, OhyA Q265A/T436A/N438A (OhyA Q265A/T436A/N438A): 1.5 ± 0.1 mU g^−1 CDW

SMILES: CCCCCCCC/C=C\CCCCCCCC(=O)OC [Entry 6, methyl oleate]
- Apparent hydration activity normalized for biomass, OhyA WT (OhyA wild type (WT)): 0.3 ± 0.1 mU g^−1 CDW
- relative hydration activity compared to wt-OhyA (OhyA Q265A/T436A/N438A): 6 fold
- e.e. of hydrated product (OhyA Q265A/T436A/N438A): >99%
- Apparent hydration activity normalized for biomass, OhyA Q265A/T436A/N438A (OhyA Q265A/T436A/N438A): 2.5 ± 0.2 mU g^−1 CDW
- peak at the expected retention time of the hydrated product (GC-MS) [2]: only in the case of the variant

Source: patent US20210222144A1, “SELECTIVE HYDRATION OF OLEIC ACID DERIVATIVES” (priority 2018, published 2021)
